Read-outs that look alike come from different tables or passages of the source.
Assays:
subcutaneous 9L tumors = test: Growth of subcutaneous 9L tumors in nude mice; format: in vivo; settings: after three weeks
Method: (§1) In Vivo Experiments: 10^5 9L or 9L/FPGS cells or a mixture of 8×10^5 9L+2×10^5 9L/FPGS cells in 200 μL DMEM were injected subcutaneously into the flanks of six week old female nude mice (NCr/Sed, nu/nu, 20 gm; Massachusetts General Hospital breeding colony). After 14 days, when the tumors had reached an average volume of 60 mm^3, the mice were randomly divided into experimental groups with five mice per group. Intraperitoneal injections of varying MTX or EDX doses dissolved in 200 μL 0.9% NaCl were administered either daily or every third day. Tumor size was measured weekly using calipers. Tumor volume was calculated as length×width×height, as described previously (Takamiya, Y., et al., Journal of Neuroscience Research 33:493-503 (1992)).

in vivo = settings: nude, mouse, ip
hepatoma cells = settings: cited from earlier work
[1] = nude mice, five consecutive days, previous studies (Inaba 1989); cited from earlier work
[2] = Maximum tolerated (nonlethal) dose in nude mice
U87 cells = test: Cell culture survival study, U87 cells; format: cell-based, human
Method: (§2) Cell Culture Survival Studies: Cells were plated in triplicate at 8×10^5 cells per 10-cm-diameter plate, and were allowed to adhere for 4 hours, after which the medium was replaced with medium containing MTX or EDX. After 4 hours drug exposure, the plates were washed three times with 4 mL PBS. Drug-free medium was then added, and three days later the cells were trypsinized and counted on a model ZM Coulter apparatus. Dose-response curves were generated using Sigma Plot 3.0, which employs curve-fitting parameters based on the Marquardt-Levenberg method (Marquardt, D. W., Siam, J., J. Soc. Indust. Appl. Math 11:431-441 (1963)).

[3] = system: subcutaneous 9L/FPGS tumors; test: Growth of subcutaneous 9L/FPGS tumors in nude mice; format: in vivo; settings: after three weeks
Method: as §1

[4] = system: cocultures of 9L/FPGS and 9L cells; test: Bystander effect study, cocultures of 9L/FPGS and 9L cells; format: cell-based, rat
Method: For bystander effect studies, cells were plated in triplicate with varying combinations of 9L/FPGS and 9L cells such that the total number of cells was 8×10^5 per 10-cm-diameter plate. The same protocol of 4 hour cell adherence followed by 4 hour drug exposure, washes, growth in drug free medium for 3 days, and counting on a ZM coulter apparatus was then followed. […] Four mL conditioned medium+2 mL fresh medium were added to 10-cm-diameter plates containing 9L/BAG cells plated overnight (1000 cells/dish, with a clonogenic efficiency of approximately 20%). Six days later, the cells were fixed with 4% paraformaldehyde in PBS. Fixed cells were stained for LacZ by incubating overnight in a solution containing 35 mM potassium ferricyanide, 35 mM potassium ferrocyanide, 2 mM magnesium chloride, and 0.2% 5-bromo-4-chloro-3-indolyl-β-D galactoside (Xgal; Fisher Scientific Co.;Pittsburgh, Pa.) at pH=7.3 (Price, J., et al., Proceedings of the National Academy of Sciences USA 84:156-160 (1987)). The next day, blue colonies greater than 1 mm in diameter were counted.
However, a more quantitative approach is to generate a dose-response curve for nontransfected cells, transfected cells, and a coculture and to calculate the transmission efficiency (TE) for the coculture (Friedlos, F., et al., Journal of Medicinal Chemistry 40:1270-1275 (1997)). [formula]
The superscripts 0, N, and 100 designate the ED50 values for cultures containing 0, N, and 100% transfected cells.

[5] = in vivo, cited from earlier work
9L cells [6] = test: Cell culture survival study, 9L cells; format: cell-based, rat; settings: for EC50: Rattus norvegicus, 9L, read-out: ED50 (the source's name)
Method: as §2, with “After 4 hours drug exposure, the plates were washed three times with 4 mL PBS.” left out

9L/FPGS cells [7] = test: Cell culture survival study, 9L/FPGS cells; format: cell-based, rat; settings: for EC50: Rattus norvegicus, 9L/FPGS, read-out: ED50 (the source's name)
Method: as §2, with “After 4 hours drug exposure, the plates were washed three times with 4 mL PBS.” left out

9L/FPGS cells [8] = settings: rat, 24 h, 2 μM
Method: (§3) Thin Layer Chromatography of MTX Metabolites: 10^6 9L or 9L/FPGS cells were plated in 6-cm diameter dishes and allowed to adhere for 4 hours, after which cells were incubated overnight with 2 μM 3′, 5′, 7-[^3H] methotrexate (Moravek Biochemicals; Brea, Calif.). Cells were then trypsinized, centrifuged, resuspended in 300 μL deionized water, and sonicated for 45 seconds at half-maximal power. Sonicated cells were centrifuged briefly to remove cellular debris, after which protein concentration was calculated using the Bradford protein assay. Proteins were precipitated with 1 mL methanol at −20° C. for 2 hr. Precipitated proteins were removed by centrifugation at 20,000 g for 30 min, and the supernatant was then concentrated to 30 μL under a stream of N2 at 37° C. on a Meyer N-Evap Analytical Evaporator (Organomation Associates Inc., Northborough, Mass.). A 1 μL aliquot was scintillation counted—cpm were converted into moles of drug taken up by determining the cpm of a known quantity of [^3H] MTX. […] Plates were eluted with a chloroforrn-methanol-acetic acid mixture (2:2:1) containing 20 mg/mL cetyl trimethylammonium bromide (Sigma). Following elution, the plates were placed under ordinary fluorescent light for 2 days, after which 20 nmol unlabelled standards were visualized under long-wave ultraviolet light. Plates were run in duplicate and the average RF values of the standards were: MTX=0.66; MTX-G1=0.59; MTX-G2=0.44, MTX-G3=0.33; MTX-G4=0.27; MTX-G5=0.25. Regions corresponding to where standards migrated were marked in the sample lane, scraped individually into scintillation vials, and counted. The amount of each radioactive metabolite in a sample lane was determined as a percentage of the total radioactivity recovered from that sample lane, after subtraction of the background counts obtained from lanes lacking radioactive sample.

9L cells [9] = settings: rat, 24 h, 2 μM
Method: as §3

[10] = mouse, in vivo, 9 mg/kg; cited from earlier work
[11] = 4 h, 4 hrs drug exposure, curves of FIG. 1 (MTX) / FIG. 3a (EDX)

## CN(Cc1cnc2nc(N)nc(N)c2n1)c1ccc(C(=O)N[C@@H](CCC(=O)O)C(=O)O)cc1 [MTX, Amethopterin]
Subcutaneous 9L tumors; 9 mg/kg daily i.p.
  fold growth of tumor volume: 10 fold
Subcutaneous 9L tumors; 9 mg/kg every third day i.p.
  fold growth of tumor volume: 26 fold
In vivo
  MTD: 9 mg/kg/day
Hepatoma cells
  total intracellular polyglutamate pool leaving the cell as monoglutamylated MTX: 43%
[1]
  maximum tolerated (nonlethal) dose (MTD): 15 mg/kg/day
[2]
  maximum nonlethal dose: 9 mg/kg
U87 cells; 4 hour pulse
  ED50 of U87 higher than that of 9L: over 10 fold
U87 cells; Homo sapiens, U-87 MG, U87, 4 hrs drug exposure, 3 days drug-free, read-out: ED50 (the source's name)
  EC50: 30000 nM
[3]; 9 mg/kg daily i.p.
  fold growth of tumor volume: 4 fold
[3]; 9 mg/kg every third day i.p.
  fold growth of tumor volume: 9 fold
[4]; Rattus norvegicus, coculture 20% 9L/FPGS + 80% 9L, 4 hrs drug exposure, FIG. 4a, read-out: ED50 (the source's name)
  EC50: 1400 nM
[4]; cocultures containing 20% 9L/FPGS cells, 4 hour pulses
  transmission efficiency (TE): 49.9%
[5]; 50 mg/kg
  peak plasma level: 0.1 mM
[5]
  dose at which toxic side effects are experienced: 50 mg/kg
9L cells [6]; 9L cells, 0.3 μM for 4 hours, 3 days drug-free medium
  survival: ~90%
9L cells [6]; 4 h, 4 hrs drug exposure, bystander experiment FIG. 4a
  EC50: 2700 nM
9L cells [6]; [11]
  EC50: 2900 nM
9L cells [6]; 72 h, 72 hrs drug exposure
  EC50: 40 nM
9L/FPGS cells [7]; 4 hour pulses
  range of concentrations with statistically significant difference in survival between 9L and 9L/FPGS: 100 fold
9L/FPGS cells [7]; 4 hour pulses, FIG. 1 / FIG. 3A
  difference in ED50 between 9L and 9L/FPGS: 29 fold
9L/FPGS cells [7]; 4 h, 4 hrs drug exposure, bystander experiment FIG. 4a (MTX) / 4b (EDX)
  EC50: 93 nM
9L/FPGS cells [7]; [11]
  EC50: 101 nM
9L/FPGS cells [7]; 72 h, 72 hrs drug exposure
  EC50: 40 nM
9L/FPGS cells [7]; two G418-resistant clones (one designated 9L/FPGS), 0.3 μM for 4 hours, 3 days drug-free medium
  survival: approximately 40%
9L/FPGS cells [8]
  POLYGLUTAMATE DISTRIBUTION (percentages of total sample lane radioactivity): 10%
  TOTAL MTX ACCUMULATED: 12.7 pmol/mg protein
  total radioactivity associated with the higher order polyglutamates MTX-G4 and G5: 31%
9L cells [9]
  TOTAL MTX ACCUMULATED: 6.3 pmol/mg protein
  total radioactivity associated with the higher order polyglutamates MTX-G4 and G5: 14%
[10]
  peak plasma level: 0.03 mM

Source: US6770632B1, “Folypolyglutamyl synthetase gene transfer to enhance antifolate” (priority 1999, dated 2004)
